The values that follow come from patent publication US11034650B2, “Compounds useful for treating a Mannheimia haemolytica or Histophilus somni infection” (Intervet Inc., priority 2016, dated 2021).

In brackets after ≈: the same amount, converted by molar mass. Bounds are passed on as bounds.

For one assay, the system named is Mannheimia haemolytica MH 6357 (M7/2, reference strain, cattle infection strain). Kind of assay: MIC, broth-microdilution (CLSI VET01-A4), strain MH 6357. It is filed as cell-based. The settings on record: Mannheimia haemolytica strain MH 6357, broth-microdilution; unit assumed. The method in brief:
(§1)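 Compounds were serially diluted twofold in microdilution trays. Growth was judged by eye, and the MIC was the lowest concentration showing no turbidity. Results were interpreted per CLSI VET01-S3.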
(In general: Dilution methods test growth across graded concentrations, often in twofold steps.)
`COCCNCc1ccc(C#Cc2ccc(C(=O)N[C@H](C(=O)NO)C(C)(C)O)cc2)s1` [C.292] came in with an MIC MH 6357 of 0.4 µg/mL (≈ 0.898 µM).
The same measure, in the same setting: to `CSC(C)(C)[C@H](NC(=O)c1ccc(C#Cc2ccc(CNCc3ncc(C)o3)s2)cc1)C(=O)NO` [Compound 310] belongs 1.6 µg/mL (≈ 3.12 µM).
On the same count and under the same terms, to `CC(=O)C(NC(=O)c1ccc(C#Cc2ccc(CNCc3nccs3)cc2)cc1)C(=O)NO` (stereo not shown) [Compound 414] belongs 0.8 µg/mL (≈ 1.73 µM).
In turn, `CC(C)(O)[C@H](NC(=O)c1ccc(C#Cc2ccc(CNC3CCC3)cc2)cc1)C(=O)NO` [Compound 226] had an MIC MH 6357 of 3.1 µg/mL (≈ 7.12 µM).

Another assay relates to Mannheimia haemolytica MH 6374 (ATCC 33396, reference strain). The assay can be described thus: MIC, broth-microdilution (CLSI VET01-A4), strain MH 6374. It is filed as cell-based. The settings on record: Mannheimia haemolytica strain MH 6374, broth-microdilution; unit assumed. The method in brief:
as §1
In turn, `COCCNCc1ccc(C#Cc2ccc(C(=O)N[C@H](C(=O)NO)C(C)(C)O)cc2)s1` [C.292] gave an MIC MH 6374 of 0.8 µg/mL (≈ 1.8 µM).
Take `CSC(C)(C)[C@H](NC(=O)c1ccc(C#Cc2ccc(CNCc3ncc(C)o3)s2)cc1)C(=O)NO` [Compound 310]: the MIC MH 6374 is 0.8 µg/mL (≈ 1.56 µM).
Same read-out and setting: under `CC(=O)C(NC(=O)c1ccc(C#Cc2ccc(CNCc3nccs3)cc2)cc1)C(=O)NO` (stereo not shown) [Compound 414] stands 1.6 µg/mL (≈ 3.46 µM); under `CC(C)(O)[C@H](NC(=O)c1ccc(C#Cc2ccc(CNC3CCC3)cc2)cc1)C(=O)NO` [Compound 226], 3.1 µg/mL (≈ 7.12 µM).

The subject of another assay is Mannheimia haemolytica MH 10720 (154, BRD field isolate). Kind of assay: MIC, broth-microdilution (CLSI VET01-A4), strain MH 10720. It is filed as cell-based. The settings on record: Mannheimia haemolytica strain MH 10720, broth-microdilution; unit assumed. In short, it runs like this: as §1
Compound `COCCNCc1ccc(C#Cc2ccc(C(=O)N[C@H](C(=O)NO)C(C)(C)O)cc2)s1` [C.292] yielded an MIC MH 10720 of no more than 0.1 µg/mL.
Still for that read-out and setting: to `CSC(C)(C)[C@H](NC(=O)c1ccc(C#Cc2ccc(CNCc3ncc(C)o3)s2)cc1)C(=O)NO` [Compound 310] belongs 0.4 µg/mL (≈ 0.78 µM); to `CC(=O)C(NC(=O)c1ccc(C#Cc2ccc(CNCc3nccs3)cc2)cc1)C(=O)NO` (stereo not shown) [Compound 414], 0.8 µg/mL (≈ 1.73 µM).
As to `CC(C)(O)[C@H](NC(=O)c1ccc(C#Cc2ccc(CNC3CCC3)cc2)cc1)C(=O)NO` [Compound 226], the MIC MH 10720 turned out to be 0.8 µg/mL (≈ 1.84 µM).

For a further assay, the system named is Mannheimia haemolytica MH 12587 (1071, BRD field isolate, macrolide-resistance: erm+, E+). Kind of assay: MIC, broth-microdilution (CLSI VET01-A4), strain MH 12587. It is filed as cell-based. The settings on record: Mannheimia haemolytica strain MH 12587, broth-microdilution; unit assumed. The method in brief: as §1
Compound `COCCNCc1ccc(C#Cc2ccc(C(=O)N[C@H](C(=O)NO)C(C)(C)O)cc2)s1` [C.292] came in with an MIC MH 12587 of 1.6 µg/mL (≈ 3.59 µM).
The compound `CSC(C)(C)[C@H](NC(=O)c1ccc(C#Cc2ccc(CNCc3ncc(C)o3)s2)cc1)C(=O)NO` [Compound 310] showed an MIC MH 12587 of 3.1 µg/mL (≈ 6.05 µM).
In turn, `CC(=O)C(NC(=O)c1ccc(C#Cc2ccc(CNCc3nccs3)cc2)cc1)C(=O)NO` (stereo not shown) [Compound 414] yielded an MIC MH 12587 of 0.4 µg/mL (≈ 0.865 µM).
The same measure, in the same setting: under `CC(C)(O)[C@H](NC(=O)c1ccc(C#Cc2ccc(CNC3CCC3)cc2)cc1)C(=O)NO` [Compound 226] stands 12.5 µg/mL (≈ 28.7 µM).

The next assay concerns Mannheimia haemolytica MH 13065 (XB0446-6003.9, BRD field isolate). Kind of assay: MIC, broth-microdilution (CLSI VET01-A4), strain MH 13065. It is filed as cell-based. The settings on record: Mannheimia haemolytica strain MH 13065, broth-microdilution; unit assumed. In short, it runs like this: as §1
Regarding `COCCNCc1ccc(C#Cc2ccc(C(=O)N[C@H](C(=O)NO)C(C)(C)O)cc2)s1` [C.292], the MIC MH 13065 was found to be 0.8 µg/mL (≈ 1.8 µM).
Consider `CSC(C)(C)[C@H](NC(=O)c1ccc(C#Cc2ccc(CNCc3ncc(C)o3)s2)cc1)C(=O)NO` [Compound 310], for which the MIC MH 13065 was determined as 1.6 µg/mL (≈ 3.12 µM).
On the same count and under the same terms, under `CC(=O)C(NC(=O)c1ccc(C#Cc2ccc(CNCc3nccs3)cc2)cc1)C(=O)NO` (stereo not shown) [Compound 414] stands 0.8 µg/mL (≈ 1.73 µM); under `CC(C)(O)[C@H](NC(=O)c1ccc(C#Cc2ccc(CNC3CCC3)cc2)cc1)C(=O)NO` [Compound 226], 3.1 µg/mL (≈ 7.12 µM).

The subject of another assay is Mannheimia haemolytica MH 13093 (XB0472-6014.1, BRD field isolate). Kind of assay: MIC, broth-microdilution (CLSI VET01-A4), strain MH 13093. In kind it is cell-based. The settings on record: Mannheimia haemolytica strain MH 13093, broth-microdilution; unit assumed. The method in brief: as §1
`COCCNCc1ccc(C#Cc2ccc(C(=O)N[C@H](C(=O)NO)C(C)(C)O)cc2)s1` [C.292] displayed an MIC MH 13093 of 1.6 µg/mL (≈ 3.59 µM).
On to `CSC(C)(C)[C@H](NC(=O)c1ccc(C#Cc2ccc(CNCc3ncc(C)o3)s2)cc1)C(=O)NO` [Compound 310], for which the MIC MH 13093 stood at 1.6 µg/mL (≈ 3.12 µM).
Still for that read-out and setting: under `CC(=O)C(NC(=O)c1ccc(C#Cc2ccc(CNCc3nccs3)cc2)cc1)C(=O)NO` (stereo not shown) [Compound 414] stands 1.6 µg/mL (≈ 3.46 µM).
Same read-out and setting: under `CC(C)(O)[C@H](NC(=O)c1ccc(C#Cc2ccc(CNC3CCC3)cc2)cc1)C(=O)NO` [Compound 226] stands 6.3 µg/mL (≈ 14.5 µM).

For another assay, the system named is Pasteurella multocida PM 6267 (P 2225 (L386), reference strain, mouse infection strain). The assay can be described thus: MIC, broth-microdilution (CLSI VET01-A4), strain PM 6267. In kind it is cell-based. The settings on record: Pasteurella multocida strain PM 6267, broth-microdilution; unit assumed. In short, it runs like this:
as §1
`COCCNCc1ccc(C#Cc2ccc(C(=O)N[C@H](C(=O)NO)C(C)(C)O)cc2)s1` [C.292] yielded an MIC PM 6267 of 1.6 µg/mL (≈ 3.59 µM).
Same read-out and setting: to `CSC(C)(C)[C@H](NC(=O)c1ccc(C#Cc2ccc(CNCc3ncc(C)o3)s2)cc1)C(=O)NO` [Compound 310] belongs 1.6 µg/mL (≈ 3.12 µM).
On the same count and under the same terms, under `CC(=O)C(NC(=O)c1ccc(C#Cc2ccc(CNCc3nccs3)cc2)cc1)C(=O)NO` (stereo not shown) [Compound 414] stands 6.3 µg/mL (≈ 13.6 µM).
On the same count and under the same terms, to `CC(C)(O)[C@H](NC(=O)c1ccc(C#Cc2ccc(CNC3CCC3)cc2)cc1)C(=O)NO` [Compound 226] belongs no more than 0.1 µg/mL.

The next assay relates to Pasteurella multocida PM 6391 (ATCC 43137, reference strain). The assay can be described thus: MIC, broth-microdilution (CLSI VET01-A4), strain PM 6391. The settings on record: Pasteurella multocida strain PM 6391, broth-microdilution; unit assumed. It is filed as cell-based. The method in brief: as §1
Compound `COCCNCc1ccc(C#Cc2ccc(C(=O)N[C@H](C(=O)NO)C(C)(C)O)cc2)s1` [C.292] had an MIC PM 6391 of 0.8 µg/mL (≈ 1.8 µM).
Still for that read-out and setting: under `CSC(C)(C)[C@H](NC(=O)c1ccc(C#Cc2ccc(CNCc3ncc(C)o3)s2)cc1)C(=O)NO` [Compound 310] stands 0.4 µg/mL (≈ 0.78 µM); under `CC(=O)C(NC(=O)c1ccc(C#Cc2ccc(CNCc3nccs3)cc2)cc1)C(=O)NO` (stereo not shown) [Compound 414], no more than 0.1 µg/mL.
Same read-out and setting: to `CC(C)(O)[C@H](NC(=O)c1ccc(C#Cc2ccc(CNC3CCC3)cc2)cc1)C(=O)NO` [Compound 226] belongs 0.4 µg/mL (≈ 0.918 µM).

The test system of a further assay is Pasteurella multocida PM 10775 (080130003051, BRD field isolate). Kind of assay: MIC, broth-microdilution (CLSI VET01-A4), strain PM 10775. It is filed as cell-based. The settings on record: Pasteurella multocida strain PM 10775, broth-microdilution; unit assumed. In short, it runs like this: as §1
Consider `COCCNCc1ccc(C#Cc2ccc(C(=O)N[C@H](C(=O)NO)C(C)(C)O)cc2)s1` [C.292], for which the MIC PM 10775 is no more than 0.1 µg/mL.
As for `CSC(C)(C)[C@H](NC(=O)c1ccc(C#Cc2ccc(CNCc3ncc(C)o3)s2)cc1)C(=O)NO` [Compound 310], the MIC PM 10775 came out at 0.4 µg/mL (≈ 0.78 µM).
The compound `CC(=O)C(NC(=O)c1ccc(C#Cc2ccc(CNCc3nccs3)cc2)cc1)C(=O)NO` (stereo not shown) [Compound 414] yielded an MIC PM 10775 of 0.4 µg/mL (≈ 0.865 µM).
For `CC(C)(O)[C@H](NC(=O)c1ccc(C#Cc2ccc(CNC3CCC3)cc2)cc1)C(=O)NO` [Compound 226], the MIC PM 10775 was no more than 0.1 µg/mL.

The next assay has as its system Pasteurella multocida PM 12080 (IV102277-0093, BRD field isolate). Kind of assay: MIC, broth-microdilution (CLSI VET01-A4), strain PM 12080. The settings on record: Pasteurella multocida strain PM 12080, broth-microdilution; unit assumed. It is filed as cell-based. The method in brief: as §1
For `COCCNCc1ccc(C#Cc2ccc(C(=O)N[C@H](C(=O)NO)C(C)(C)O)cc2)s1` [C.292], the MIC PM 12080 turned out to be 0.4 µg/mL (≈ 0.898 µM).
The same measure, in the same setting: under `CSC(C)(C)[C@H](NC(=O)c1ccc(C#Cc2ccc(CNCc3ncc(C)o3)s2)cc1)C(=O)NO` [Compound 310] stands 0.8 µg/mL (≈ 1.56 µM).
Consider `CC(=O)C(NC(=O)c1ccc(C#Cc2ccc(CNCc3nccs3)cc2)cc1)C(=O)NO` (stereo not shown) [Compound 414], for which the MIC PM 12080 is no more than 0.1 µg/mL.
The same measure, in the same setting: under `CC(C)(O)[C@H](NC(=O)c1ccc(C#Cc2ccc(CNC3CCC3)cc2)cc1)C(=O)NO` [Compound 226] stands 0.4 µg/mL (≈ 0.918 µM).
